# In patent US20250090507A1, “Methods of Treating Cancer With a B-RAF Inhibitor” (MapKure, LLC, priority 2022, published 2025):
# “Also recorded” adds a separate entry of the source.
# Columns and labels:
# [1] = tested on: RAF family of serine/threonine kinases; test: Preclinical RAF kinase inhibition; assay type: biochemical
# Hygroscopicity = assay type: physicochemical; conditions: solid form, Form I
structure (smiles),measurement,setting,value
"O=C1CCc2c(Oc3ccc4c(c3)[C@H]3[C@H](NC(=O)Nc5cc(F)c(F)cc5F)[C@H]3O4)ccnc2N1 [Compound A, 1-((1S,1aS,6bS)-5-((7-oxo-5,6,7,8-tetrahydro-1,8-naphthyridin-4-yl)oxy)-1a,6b-dihydro-1H-cyclopropa[b]benzofuran-1-yl)-3-(2,4,5-trifluorophenyl)urea]",Potency against RAF monomer & dimer,[1]; monomer versus dimer,equal potency
same,Inhibitory activity against RAF kinases,[1]; preclinical,potent inhibitory activity; also recorded: highly potent
same,Hygroscopicity,Hygroscopicity,Hygroscopic
